This note sets out measurements from US9951055B2, “Thiazole-based inhibitors of scavenger receptor BI” (THE BROAD INSTITUTE, INC., priority 2012, dated 2018).

Like-named read-outs stand apart in the source and are kept apart here. A value given as a limit tells only on which side of the number the result lay.

The target in one series is T1, murine SR-BI (Mus musculus, UniProt Q61009).
T1 construct: expressed in transfected cells; host or cells: ldlA[mSR-BI]; (CHO ldlA7 derivative lacking the LDL receptor)
T1 sequence (Q61009 1-509): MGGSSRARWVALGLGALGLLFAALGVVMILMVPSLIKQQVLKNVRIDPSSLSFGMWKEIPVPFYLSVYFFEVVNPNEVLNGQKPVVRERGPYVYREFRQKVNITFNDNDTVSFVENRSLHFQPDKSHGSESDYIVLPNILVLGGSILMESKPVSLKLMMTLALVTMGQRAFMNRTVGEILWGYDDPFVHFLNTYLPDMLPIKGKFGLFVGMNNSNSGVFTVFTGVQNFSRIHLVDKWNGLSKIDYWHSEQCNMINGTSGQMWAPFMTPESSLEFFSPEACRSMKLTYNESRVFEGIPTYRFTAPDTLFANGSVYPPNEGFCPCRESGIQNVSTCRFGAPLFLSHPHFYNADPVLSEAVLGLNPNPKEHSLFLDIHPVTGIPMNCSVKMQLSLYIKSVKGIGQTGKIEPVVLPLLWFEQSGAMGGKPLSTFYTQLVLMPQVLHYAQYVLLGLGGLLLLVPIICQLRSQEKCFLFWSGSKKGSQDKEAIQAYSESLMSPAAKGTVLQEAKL
In words: DiI-HDL uptake assay with extended washout. Format: cell-based. Particulars: after a 4-hour washout period. As for the experimental part:
DiI-HDL Uptake Assay with Extended Washout (SA 5: AID No. 602154)
This is another modification of the primary assay where cells are pretreated with compound but no compound is present during a 4-hour washout period or the subsequent 3-hour DiI-HDL treatment period. […] Cells were treated with compound for 3 hours, then were washed four times with PBS, once with lipoprotein-free media (Ham's F12/0.5% fatty acid-free Bovine Serum Albumin [BSA]/25 mM HEPES pH 7.4), and then returned to the incubator with lipoprotein-free media for 4 hours. Media were then removed and cells were washed with PBS before fresh lipoprotein-free media (Ham's F12/0.5% fatty acid-free Bovine Serum Albumin [BSA]/25 mM HEPES pH 7.4) was added with […] DiI-HDL. Cells took up the DiI via SR-BI over 3 hours in the absence of compound. After significant uptake of the DiI, the cells became fluorescent. The level of fluorescence correlates with the amount of DiI uptake and can be measured with a standard plate reader. The uptake of lipid (represented by DiI) was inhibited by the compound BLT-1 or with an excess of HDL untreated with DiI.

The nature of series [1]: Stability in human plasma. Format: in vitro ADME. Particulars: after a 5-hour incubation period. As to the method:
(§1) The stability of the probe in PBS (1% DMSO) was measured over 48 hours. We noticed that the concentration of the probe fluctuated through the course of the assay (data not shown). We believe that this fluctuation is due to the low solubility of the probe. Thus, we decided to determine the amount of undissolved probe present in the well after it was treated with PBS for a given length of time, relative to the amount of undissolved probe at the start of the assay. The wells were centrifuged and the supernatant was removed after various time points, then acetonitrile was added to dissolve the remaining solid in the wells, and the amount of probe was quantified. […] The stability of the probe was confirmed by measuring stability in human plasma, with >99% remaining after a 5-hour incubation period. […] FIG. 5 provides a tablular summary of Known Probe (ML278) Properties Computed from Structure.

Series [2] is described as follows: Cell cytotoxicity assay (CellTiter-Glo). The format is cell-based, Chinese hamster. Particulars: Chinese hamster, ldlA[mSR-BI] cells; after 24 hours of treatment. As for the experimental part:
It is possible that a compound will cause cells to decrease HDL-mediated DiI uptake due to nonspecific consequences of cellular toxicity, representing a second class of false positive hits. The cells were treated with compounds for 3 hours or 24 hours, and then cell viability was measured using the CellTiter-Glo Assay (Promega), a luciferase-based reagent that measures cellular ATP levels. The compounds were tested at different concentrations to determine IC50 values. […] Compounds that were active in the primary assay but toxic below 30 μM at 24 hours (but nontoxic at 3 hours) were still considered. […] Data were normalized against DMSO and the positive control (1 μM BLT-1) in Genedata Assay Analyzer.
All available dry powder samples of the remaining, non-quenching compounds were procured from commercial sources and purities were determined. The compounds obtained were then retested in the primary assay and in the cytotoxicity assays. We wanted to rule out any compounds that were cytotoxic, especially in the 3-hour time span of the primary DiI-HDL uptake assay. Therefore, compounds were tested in ldlA[mSR-BI]cells for cytotoxicity at 3 hours and 24 hours using the CellTiter-Glo assay (Promega) that measures cellular ATP as a marker of cell viability. […] Compounds were screened for inhibition of endocytosis using labeled transferrin, which is known to bind the transferrin receptor, enter cells by clathrin-mediated endocytosis, and move to endosomes before being recycled to the cell surface. The BLT compounds have also been tested for potential interference with endocytosis and show no such activity.

The target in a further series is T2, SR-BI (Mus musculus, UniProt Q61009).
T2 sequence (Q61009 1-509): T1 sequence (Q61009 1-509)
Nature of the series: 125I-HDL binding assay. Set-up: expressed in transfected cells. As for the experimental part:
In a binding assay, ^125I-HDL binding to cells (4° C. or 37° C.) was measured for 2 h in the absence (total activity) or presence (nonspecific activity) of a 40-fold excess of unlabeled HDL. Stably transfected cells were seeded in the wells of 24-well plates (50,000 cells per well) in Ham's F12 medium containing 2 mM L-glutamine, 50 units/mL penicillin per 50 μg/mL streptomycin (medium A) supplemented with 5% (vol/vol) FBS and 0.25 mg/mL G418 (medium B) on day 0, and binding assays were performed on day 2. The cells were washed twice with prewarmed (37° C.) medium A plus 0.5% (wt/vol) BSA (medium C) prior to adding ^125I-HDL. For binding assays performed at 4° C., the assay plates were removed from the incubator, precooled for 30 min on ice in a cold room (4° C.), and then washed twice with cold (4° C.) medium C supplemented with 10 mM Hepes, pH 7.4, prior to adding ^125I-HDL. Specific binding or uptake is the difference between total and nonspecific activities. In assays using small molecule inhibitors (all incubations at 37° C.), immediately prior to incubation with ^125I-HDL, the cells were washed twice with medium A, preincubated with the small molecules for 1 h, and then incubated with radiolabeled lipoproteins as described above, all in medium C plus 0.5% (vol/vol) DMSO in the presence of the indicated concentrations of small molecules.

The next series can be described thus: Stability in PBS. The format is physicochemical. Particulars: PBS (1% DMSO), over 48 hours. As for the experimental part:
as §1

One may read the IC50 as the concentration at which inhibition is half-maximal. As for `CCCCCCC1CCCC1=NNC(N)=S` (stereo not drawn) [BLT-1, reference compound], on murine SR-BI, the IC50 was 0.6 nM.
For orientation: EC50 means the concentration that produces a half-maximal response. `COCC(=O)N1CCc2cc(-c3csc(NC(=O)c4cc(OC)cc(OC)c4)n3)ccc21` [Compound 137, 3,5-Dimethoxy-N-(4-(1-(2-methoxyacetyl)indolin-5-yl)thiazol-2-yl)benzamide]: the “stability in human plasma, remaining” value in series [1] is recorded as over 99%. The compound also displayed an EC50 at 24 h in series [2] of over 35 µM. For the same compound, the 50% inhibitory concentration (IC50) on SR-BI (37° C., 1 h preincubation with compound, read-out: IC50) is 5.7 nM; on SR-BI (range, read-out: measured range of IC50), 0.93 to 6 nM. Further, the “stability in PBS” value in “Stability in PBS” is “stable to PBS”.
